One may read the IC50 as the concentration that inhibits the measured activity by half.

These results are taken from US10538498B2, “1,3,4-oxadiazole sulfonamide derivative compounds as histone deacetylase 6 inhibitor, and the pharmaceutical composition comprising the same” (Chong Kun Dang Pharmaceutical Corp., priority 2015, dated 2020).

The target in assay [1] is T1, human recombinant HDAC1 (Homo sapiens, UniProt Q13547).
T1 construct: purchased Enzo Life Science BML-SE456
As to the kind of experiment: HDAC1 enzyme activity inhibition assay (HDAC Fluorimetric Drug Discovery Kit). Format: biochemical. Particulars: 0.3 μg enzyme, 10 μM substrate, 30° C., 60 minutes. The method, boiled down: (§1)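 Human recombinant enzyme, 0.3 μg, incubated with 10 μM Fluor de Lys-SIRT1 substrate and 5-fold compound dilutions at 30° C for 60 min. Developer II added for 30 min, then fluorescence read (Ex 360/Em 460). IC50 values derived from the fluorescence data.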

Assay [2] deals with T2, human recombinant HDAC6 (Homo sapiens, UniProt Q9UBN7).
T2 construct: purchased Calbiochem 382180
T2 sequence (Q9UBN7 1-1215): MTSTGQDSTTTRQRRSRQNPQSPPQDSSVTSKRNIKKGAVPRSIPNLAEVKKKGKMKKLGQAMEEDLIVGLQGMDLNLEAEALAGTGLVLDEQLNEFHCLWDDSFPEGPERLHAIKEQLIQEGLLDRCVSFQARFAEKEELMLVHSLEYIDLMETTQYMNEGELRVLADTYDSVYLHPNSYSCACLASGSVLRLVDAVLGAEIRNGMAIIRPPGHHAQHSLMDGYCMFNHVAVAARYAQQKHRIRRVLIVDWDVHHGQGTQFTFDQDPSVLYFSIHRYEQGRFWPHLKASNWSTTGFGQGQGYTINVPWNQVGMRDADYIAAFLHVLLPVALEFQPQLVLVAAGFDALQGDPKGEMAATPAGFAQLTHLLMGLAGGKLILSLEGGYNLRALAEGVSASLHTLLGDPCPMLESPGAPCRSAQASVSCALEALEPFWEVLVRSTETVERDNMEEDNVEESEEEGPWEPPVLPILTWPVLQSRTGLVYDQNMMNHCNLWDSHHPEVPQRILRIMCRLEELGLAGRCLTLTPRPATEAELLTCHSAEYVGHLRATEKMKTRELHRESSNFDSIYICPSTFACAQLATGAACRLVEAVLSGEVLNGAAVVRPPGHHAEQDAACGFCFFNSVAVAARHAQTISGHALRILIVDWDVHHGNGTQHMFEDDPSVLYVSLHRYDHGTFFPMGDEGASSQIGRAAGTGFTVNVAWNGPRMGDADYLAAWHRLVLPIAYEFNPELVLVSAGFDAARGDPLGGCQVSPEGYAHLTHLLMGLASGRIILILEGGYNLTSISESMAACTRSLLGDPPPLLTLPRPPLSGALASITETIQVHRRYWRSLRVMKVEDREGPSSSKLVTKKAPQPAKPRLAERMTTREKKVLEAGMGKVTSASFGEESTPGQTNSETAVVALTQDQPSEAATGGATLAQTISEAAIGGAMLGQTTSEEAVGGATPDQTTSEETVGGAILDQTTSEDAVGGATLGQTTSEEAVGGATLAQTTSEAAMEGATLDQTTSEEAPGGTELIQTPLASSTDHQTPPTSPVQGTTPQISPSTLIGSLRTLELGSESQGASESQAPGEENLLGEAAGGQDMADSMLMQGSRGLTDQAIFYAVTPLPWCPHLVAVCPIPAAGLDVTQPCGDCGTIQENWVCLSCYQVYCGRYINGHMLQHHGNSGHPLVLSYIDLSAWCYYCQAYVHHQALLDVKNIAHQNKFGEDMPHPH
As to the kind of experiment: HDAC6 enzyme activity inhibition assay (HDAC Fluorimetric Drug Discovery Kit). The class given is biochemical. Particulars: for HDAC6 selectivity (fold): HDAC1 vs HDAC6; for IC50: same protocol as the HDAC1 enzyme activity test. The gist of the method: as §1

T1 sequence (Q13547 whole entry): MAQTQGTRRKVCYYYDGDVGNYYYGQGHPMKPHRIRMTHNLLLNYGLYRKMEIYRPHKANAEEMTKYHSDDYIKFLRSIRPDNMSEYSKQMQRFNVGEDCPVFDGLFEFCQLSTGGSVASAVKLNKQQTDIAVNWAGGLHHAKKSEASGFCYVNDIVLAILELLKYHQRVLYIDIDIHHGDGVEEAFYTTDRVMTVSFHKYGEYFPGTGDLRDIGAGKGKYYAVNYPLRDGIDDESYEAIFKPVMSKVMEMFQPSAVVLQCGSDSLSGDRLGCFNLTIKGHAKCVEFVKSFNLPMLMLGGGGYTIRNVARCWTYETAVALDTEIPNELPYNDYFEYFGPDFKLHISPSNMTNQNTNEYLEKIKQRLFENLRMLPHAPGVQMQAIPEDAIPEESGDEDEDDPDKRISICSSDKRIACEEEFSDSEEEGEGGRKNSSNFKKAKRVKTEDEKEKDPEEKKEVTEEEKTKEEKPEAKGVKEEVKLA

As for `O=S(=O)(CCCO)N(Cc1ccc(-c2nnc(C(F)F)o2)cc1)c1ccccc1` [Compound 11708, N-(4-(5-(difluoromethyl)-1,3,4-oxadiazol-2-yl)benzyl)-3-hydroxy-N-phenylpropane-1-sulfonamide], the IC50 in assay [1] is 65.1 µM. In assay [2], the “HDAC6 selectivity (fold)” value was 837 fold and the IC50 turned out to be 0.0778 µM.

For `O=C(OCCCS(=O)(=O)N(Cc1ccc(-c2nnc(C(F)F)o2)cc1)c1ccccc1)C(F)F` [Compound 11709, 3-(N-(4-(5-(difluoromethyl)-1,3,4-oxadiazol-2-yl)benzyl)-N-phenylsulfamoyl)propyl 2,2-difluoroacetate], the concentration for half-maximal inhibition (IC50) was 80.4 µM in assay [1] and 0.0755 µM in assay [2]. Further, the “HDAC6 selectivity (fold)” value in assay [2] stood at 1065 fold.

For `O=S(=O)(CCCN1CCCC1)N(Cc1ccc(-c2nnc(C(F)F)o2)cn1)c1ccccc1` [Compound 11710, N-((5-(5-(difluoromethyl)-1,3,4-oxadiazol-2-yl)pyridin-2-yl)methyl)-N-phenyl-3-(pyrrolidin-1-yl)propane-1-sulfonamide], the IC50 in assay [1] came to 29.4 µM. In assay [2], the “HDAC6 selectivity (fold)” value came to 578 fold and the IC50 is 0.0509 µM.

In the case of `O=S(=O)(CCCN1CCOCC1)N(Cc1ccc(-c2nnc(C(F)F)o2)cn1)c1ccc(F)c(Cl)c1` [Compound 11711, N-(3-chloro-4-fluorophenyl)-N-((5-(5-(difluoromethyl)-1,3,4-oxadiazol-2-yl)pyridin-2-yl)methyl)-3-morpholinopropane-1-sulfonamide], in assay [1], the IC50 is 61.3 µM. In addition, in assay [2], the “HDAC6 selectivity (fold)” value is on record as 874 fold and the IC50 was 0.0701 µM.

On to `O=S(=O)(CCCN1CCCC1)N(Cc1ccc(-c2nnc(C(F)F)o2)cc1)c1ccc(F)c(Cl)c1` [Compound 11722, N-(3-chloro-4-fluorophenyl)-N-(4-(5-(difluoromethyl)-1,3,4-oxadiazol-2-yl)benzyl)-3-(pyrrolidin-1-yl)propane-1-sulfonamide], for which the IC50 in assay [1] is 41 µM. In addition, in assay [2], the “HDAC6 selectivity (fold)” value amounted to 1266 fold and the IC50 stood at 0.0324 µM.

In the case of `O=S(=O)(C1CCN([C@H]2CC[C@H](F)CC2)CC1)N(Cc1ccc(-c2nnc(C(F)F)o2)cn1)c1cccc(Cl)c1` [Compound 11727, N-(3-chlorophenyl)-N-((5-(5-(difluoromethyl)-1,3,4-oxadiazol-2-yl)pyridin-2-yl)methyl)-1-((1r,4r)-4-fluorocyclohexyl)piperidine-4-sulfonamide], the results for the IC50 in assay [1] and in assay [2] were 33.5 µM and 0.0563 µM, respectively. Besides, the “HDAC6 selectivity (fold)” value in assay [2] worked out at 594 fold.

On to `O=S(=O)(C1CCN([C@H]2CC[C@@H](F)CC2)CC1)N(Cc1ccc(-c2nnc(C(F)F)o2)cn1)c1cccc(Cl)c1` [Compound 11728, N-(3-chlorophenyl)-N-((5-(5-(difluoromethyl)-1,3,4-oxadiazol-2-yl)pyridin-2-yl)methyl)-1-((1s,4s)-4-fluorocyclohexyl)piperidine-4-sulfonamide], for which the IC50 in assay [1] stood at 21.6 µM. For the same molecule, in assay [2], the “HDAC6 selectivity (fold)” value was 453 fold and the IC50 amounted to 0.0476 µM.

In the case of `NC(=O)[C@@H]1CCCN1CCS(=O)(=O)N(Cc1ccc(-c2nnc(C(F)F)o2)cn1)c1ccccc1` [Compound 11847, (S)-1-(2-(N-((5-(5-(difluoromethyl)-1,3,4-oxadiazol-2-yl)pyridin-2-yl)methyl)-N-phenylsulfamoyl)ethyl)pyrrolidine-2-carboxamide], the 50% inhibitory concentration (IC50) in assay [1] stood at 24.5 µM. In addition, in assay [2], the “HDAC6 selectivity (fold)” value is 445 fold and the IC50 is 0.0551 µM.

Turning to `NC(=O)[C@H]1CCCN1CCS(=O)(=O)N(Cc1ccc(-c2nnc(C(F)F)o2)cn1)c1ccccc1` [Compound 11848, (R)-1-(2-(N-((5-(5-(difluoromethyl)-1,3,4-oxadiazol-2-yl)pyridin-2-yl)methyl)-N-phenylsulfamoyl)ethyl)pyrrolidine-2-carboxamide], the IC50 in assay [1] came to 38.9 µM. In addition, in assay [2], the “HDAC6 selectivity (fold)” value is reported as 661 fold and the IC50 is 0.0589 µM.
